From ChEMBL document CHEMBL6120937, “PROTAC technology: From drug development to probe technology for target deconvolution” (Eur J Med Chem, 2024)
pIC50: −log10 of the molar value. One block for each molecule: values may come before it.

Tests used:
RAW264.7 = assay: Anti-inflammatory activity in mouse RAW264.7 cells assessed as inhibition of LPS-induced NO production incubated for 24 hrs by Griess reagent based analysis; format: functional, cell-based; conditions: RAW264.7, 24 h
[1] = Inhibition of hedgehog in […] cells; format: cell-based
HCT-116 = assay: Cytotoxicity against human HCT-116 cells assessed as reduction in cell growth incubated for 72 hrs by CCK-8 assay; format: functional, cell-based; conditions: HCT-116, 72 h
Jurkat = assay: Antiproliferative activity against human Jurkat cells assessed as reduction in cell viability incubated for 72 hrs by CCK-8 assay; format: functional, cell-based

pIC50 (RAW264.7): 5.08
SMILES: C=C1CCC2C(/C=C(\C)C(=O)[C@@]3(O)C[C@H](C)[C@H](O)C3[C@H]1OCc1cn(CCOCCOCCOCCNc3cccc4c3C(=O)N(C3CCC(=O)NC3=O)C4=O)nn1)C2(C)C (some centres undefined)

pIC50 [1]: 5.21
SMILES: COCCOC(=O)C1=C(c2cccc(OCc3cn(CCCCCCOc4cccc5c4C(=O)N(C4CCC(=O)NC4=O)C5=O)nn3)c2)C2=C(CC(c3ccccc3OC)CC2=O)NC1C (centres undefined)

SMILES: CN1c2ccc(F)cc2C(=O)N2CCc3c([nH]c4ccc(OCCCNC(=O)CCCCCC#Cc5cccc6c5CN(C5CCC(=O)NC5=O)C6=O)cc34)C21 (centres undefined)
pIC50 (HCT-116): 7.70

pIC50 (Jurkat): 6.60
SMILES: CC1=C(O)C(=O)C=C2C1=CC=C1[C@@]2(C)CC[C@@]2(C)[C@@H]3C[C@](C)(C(=O)NCCOCCNc4cccc5c4C(=O)N(C4CCC(=O)NC4=O)C5=O)CC[C@]3(C)CC[C@@]12C (some centres undefined)
